Measured values from ChEMBL document CHEMBL1201862, “PubChem BioAssay data set” (2004).
Calls of active or inactive are those of the source.

Columns and labels:
[1] = target: DNA (cytosine-5)-methyltransferase 1 (Homo sapiens, UniProt P26358); assay: DNMT1 methyltransferase inhibitors, confirmation, biochemical, fluorescent molecular beacon (AID 602386); format: functional
[2] = target: ORF 73 (Human herpesvirus 8, UniProt O40947); assay: inhibitors of C-LANA binding to LBS DNA, dose response, biochemical, fluorescence polarization, cherry-picked samples (AID 504725); parameters: species or system Human gammaherpesvirus 8;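 further: fluorescence polarization of a labeled DNA duplex reporting LANA DNA binding; potency is for inhibitors that block LANA binding to the DNA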
[3] = target: T1, Voltage-gated N-type calcium channel alpha-1B subunit/Amyloid beta A4 precursor protein-binding family A member 1 (Homo sapiens, UniProt Q00975+Q02410); format: protein assay
[4] = target: T1, Voltage-gated N-type calcium channel alpha-1B subunit/Amyloid beta A4 precursor protein-binding family A member 1; format: protein assay; remark: listed apart in the source
[5] = target: Eukaryotic translation initiation factor 4E (Mus musculus, UniProt P63073); assay: eIF4E–eIF4G protein interaction inhibitors, dose response, biochemical, TR-FRET (AID 855); format: functional;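 further: potency for disrupting eIF4E binding to eIF4GI seen as loss of FRET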
[6] = target: T2, Bifunctional protein GlmU (Mycobacterium tuberculosis, UniProt P9WMN3); assay: Inhibitors of Mycobacterial Glucosamine-1-phosphate acetyl transferase (GlmU). Secondary screen.; parameters: species or system Mycobacterium tuberculosis H37Rv
T2 sequence (P9WMN3 whole entry): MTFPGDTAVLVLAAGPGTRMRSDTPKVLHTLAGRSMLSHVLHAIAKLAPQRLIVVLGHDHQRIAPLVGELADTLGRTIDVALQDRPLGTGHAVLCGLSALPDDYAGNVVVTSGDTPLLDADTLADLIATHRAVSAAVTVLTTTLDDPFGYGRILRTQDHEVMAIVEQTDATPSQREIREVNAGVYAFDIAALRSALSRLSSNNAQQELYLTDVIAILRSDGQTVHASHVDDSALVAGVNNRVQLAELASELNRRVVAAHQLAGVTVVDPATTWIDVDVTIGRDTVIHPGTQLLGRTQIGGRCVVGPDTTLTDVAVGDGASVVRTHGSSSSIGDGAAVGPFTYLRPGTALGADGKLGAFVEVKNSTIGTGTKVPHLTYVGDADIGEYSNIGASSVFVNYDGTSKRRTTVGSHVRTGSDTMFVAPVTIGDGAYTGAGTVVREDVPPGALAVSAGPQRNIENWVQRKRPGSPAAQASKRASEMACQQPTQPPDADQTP

[7] = target: NS3 (Hepatitis C virus, UniProt A3EZJ3); assay: PubChem AID 2173; parameters: species or system Hepacivirus hominis
[8] = target: Induced myeloid leukemia cell differentiation protein Mcl-1 (Homo sapiens, UniProt Q07820); format: functional
[9] = (§1) Counterscreen for antagonists of the orexin 1 receptor (OX1R; HCRTR1): Fluorescence-based cell-based high throughput dose response assay to identify antagonists of the parental CHO cell line. [Related pubchem assays (depositor defined):AID434989, AID435008, AID463079, AID485270, AID492963, AID492964, AID492965, AID493232, AID504699, AID504701]; format: functional
[10] = test system: CHO-K1; assay: as §1, with “Homogeneous time resolved fluorescence (HTRF)-based” for “Fluorescence-based”, “cell-based” for “cell-based high throughput”, “CHO-K1” for “CHO”; format: functional; details: Cricetulus griseus;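 further: potency for inhibition of ATP-stimulated IP1 production as antagonists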
[11] = target: T3, Orexin/Hypocretin receptor type 1 (Homo sapiens, UniProt O43613); assay: (§2) Fluorescence-based cell-based high throughput dose response assay for antagonists of the orexin 1 receptor (OX1R; HCRTR1). [Related pubchem assays (depositor defined):AID434989, AID435008, AID463079, AID485270, AID492963, AID492964, AID492965, AID493232, AID504717, AID504718]; format: functional
T3 sequence (O43613 whole entry): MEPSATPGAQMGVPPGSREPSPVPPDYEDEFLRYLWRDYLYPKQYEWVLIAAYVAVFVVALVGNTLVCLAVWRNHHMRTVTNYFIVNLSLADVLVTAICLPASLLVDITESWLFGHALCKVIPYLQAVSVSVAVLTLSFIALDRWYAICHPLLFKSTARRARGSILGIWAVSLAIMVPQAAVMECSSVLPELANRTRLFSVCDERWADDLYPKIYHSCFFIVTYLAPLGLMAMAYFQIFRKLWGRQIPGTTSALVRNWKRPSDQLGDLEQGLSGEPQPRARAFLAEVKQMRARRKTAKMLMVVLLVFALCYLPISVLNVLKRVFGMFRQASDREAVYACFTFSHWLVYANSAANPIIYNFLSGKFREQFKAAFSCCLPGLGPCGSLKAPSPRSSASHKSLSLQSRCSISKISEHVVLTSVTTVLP

[12] = target: T4, Orexin receptor type 2 (Homo sapiens, UniProt O43614); assay: Counterscreen assay for antagonists of the orexin 1 receptor (OX1R; HCRTR1): Fluorescence-based cell-based dose response assay for antagonists of the orexin 2 receptor (OX2R; HCRTR2), run by assay provider.; format: functional
T4 sequence (O43614 whole entry): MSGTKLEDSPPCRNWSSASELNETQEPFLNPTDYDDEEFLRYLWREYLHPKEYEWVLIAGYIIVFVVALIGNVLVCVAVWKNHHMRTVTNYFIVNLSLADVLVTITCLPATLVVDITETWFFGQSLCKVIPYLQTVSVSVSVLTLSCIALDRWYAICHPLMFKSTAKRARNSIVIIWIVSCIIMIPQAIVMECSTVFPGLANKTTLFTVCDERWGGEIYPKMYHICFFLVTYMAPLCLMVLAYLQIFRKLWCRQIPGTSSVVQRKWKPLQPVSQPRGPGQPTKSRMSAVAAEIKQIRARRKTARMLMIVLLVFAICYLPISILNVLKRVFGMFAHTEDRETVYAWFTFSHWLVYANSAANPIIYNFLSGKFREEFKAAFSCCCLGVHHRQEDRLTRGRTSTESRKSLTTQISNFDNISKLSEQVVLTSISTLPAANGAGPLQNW

[13] = target: T3, Orexin/Hypocretin receptor type 1; assay: as §2, with “Homogeneous Time Resolved Fluorescence (HTRF)-based” for “Fluorescence-based”; format: functional
[14] = target: T4, Orexin receptor type 2; assay: Counterscreen assay for antagonists of the orexin 1 receptor (OX1R; HCRTR1): Homogeneous Time Resolved Fluorescence (HTRF)-based cell-based dose response assay for antagonists of the orexin 2 receptor (OX2R; HCRTR2), run by assay provider.; format: functional
[15] = target: T5, Apoptotic protease-activating factor 1 (Homo sapiens, UniProt O14727); assay: SAR analysis of small molecule Activators of Apaf-1 in a Fluorescent assay.; format: functional; details: read-out: EC50_Mean;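 further: caspase-3 cleavage of fluorogenic Rh110 DEVD substrate downstream of apoptosome activation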
T5 sequence (O14727 whole entry): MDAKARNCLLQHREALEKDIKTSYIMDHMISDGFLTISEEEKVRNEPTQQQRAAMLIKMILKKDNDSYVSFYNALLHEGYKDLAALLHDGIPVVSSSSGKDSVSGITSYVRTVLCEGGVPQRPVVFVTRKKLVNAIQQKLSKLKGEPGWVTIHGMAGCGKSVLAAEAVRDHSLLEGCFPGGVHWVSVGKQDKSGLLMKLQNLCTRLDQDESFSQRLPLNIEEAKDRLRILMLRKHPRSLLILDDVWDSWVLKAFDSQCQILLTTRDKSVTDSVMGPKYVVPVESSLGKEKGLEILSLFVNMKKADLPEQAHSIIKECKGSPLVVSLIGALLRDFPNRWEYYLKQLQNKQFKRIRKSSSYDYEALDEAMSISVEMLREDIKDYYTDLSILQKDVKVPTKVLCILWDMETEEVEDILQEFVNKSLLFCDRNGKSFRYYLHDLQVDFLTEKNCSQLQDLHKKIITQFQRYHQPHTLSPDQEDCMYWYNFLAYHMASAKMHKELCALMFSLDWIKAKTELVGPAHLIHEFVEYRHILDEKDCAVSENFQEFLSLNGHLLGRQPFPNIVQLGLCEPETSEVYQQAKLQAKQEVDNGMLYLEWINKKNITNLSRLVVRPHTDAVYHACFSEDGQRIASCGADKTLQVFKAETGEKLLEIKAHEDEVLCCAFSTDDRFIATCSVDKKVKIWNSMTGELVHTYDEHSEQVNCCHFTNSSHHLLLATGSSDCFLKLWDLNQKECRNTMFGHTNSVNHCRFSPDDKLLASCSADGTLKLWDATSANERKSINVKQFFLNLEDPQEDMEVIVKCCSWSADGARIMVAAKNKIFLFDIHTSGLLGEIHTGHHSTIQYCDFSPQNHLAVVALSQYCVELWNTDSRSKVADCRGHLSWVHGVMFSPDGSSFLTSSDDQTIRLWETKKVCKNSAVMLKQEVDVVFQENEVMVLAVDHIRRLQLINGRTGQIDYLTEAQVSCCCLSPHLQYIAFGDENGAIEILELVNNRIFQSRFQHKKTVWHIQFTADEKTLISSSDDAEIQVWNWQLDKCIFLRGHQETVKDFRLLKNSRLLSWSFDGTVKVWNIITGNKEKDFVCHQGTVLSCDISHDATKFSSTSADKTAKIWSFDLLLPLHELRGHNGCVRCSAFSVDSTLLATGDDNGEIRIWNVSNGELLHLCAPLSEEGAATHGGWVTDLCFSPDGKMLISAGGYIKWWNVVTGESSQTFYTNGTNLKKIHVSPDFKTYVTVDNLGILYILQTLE

T1 sequence (Q00975 whole entry): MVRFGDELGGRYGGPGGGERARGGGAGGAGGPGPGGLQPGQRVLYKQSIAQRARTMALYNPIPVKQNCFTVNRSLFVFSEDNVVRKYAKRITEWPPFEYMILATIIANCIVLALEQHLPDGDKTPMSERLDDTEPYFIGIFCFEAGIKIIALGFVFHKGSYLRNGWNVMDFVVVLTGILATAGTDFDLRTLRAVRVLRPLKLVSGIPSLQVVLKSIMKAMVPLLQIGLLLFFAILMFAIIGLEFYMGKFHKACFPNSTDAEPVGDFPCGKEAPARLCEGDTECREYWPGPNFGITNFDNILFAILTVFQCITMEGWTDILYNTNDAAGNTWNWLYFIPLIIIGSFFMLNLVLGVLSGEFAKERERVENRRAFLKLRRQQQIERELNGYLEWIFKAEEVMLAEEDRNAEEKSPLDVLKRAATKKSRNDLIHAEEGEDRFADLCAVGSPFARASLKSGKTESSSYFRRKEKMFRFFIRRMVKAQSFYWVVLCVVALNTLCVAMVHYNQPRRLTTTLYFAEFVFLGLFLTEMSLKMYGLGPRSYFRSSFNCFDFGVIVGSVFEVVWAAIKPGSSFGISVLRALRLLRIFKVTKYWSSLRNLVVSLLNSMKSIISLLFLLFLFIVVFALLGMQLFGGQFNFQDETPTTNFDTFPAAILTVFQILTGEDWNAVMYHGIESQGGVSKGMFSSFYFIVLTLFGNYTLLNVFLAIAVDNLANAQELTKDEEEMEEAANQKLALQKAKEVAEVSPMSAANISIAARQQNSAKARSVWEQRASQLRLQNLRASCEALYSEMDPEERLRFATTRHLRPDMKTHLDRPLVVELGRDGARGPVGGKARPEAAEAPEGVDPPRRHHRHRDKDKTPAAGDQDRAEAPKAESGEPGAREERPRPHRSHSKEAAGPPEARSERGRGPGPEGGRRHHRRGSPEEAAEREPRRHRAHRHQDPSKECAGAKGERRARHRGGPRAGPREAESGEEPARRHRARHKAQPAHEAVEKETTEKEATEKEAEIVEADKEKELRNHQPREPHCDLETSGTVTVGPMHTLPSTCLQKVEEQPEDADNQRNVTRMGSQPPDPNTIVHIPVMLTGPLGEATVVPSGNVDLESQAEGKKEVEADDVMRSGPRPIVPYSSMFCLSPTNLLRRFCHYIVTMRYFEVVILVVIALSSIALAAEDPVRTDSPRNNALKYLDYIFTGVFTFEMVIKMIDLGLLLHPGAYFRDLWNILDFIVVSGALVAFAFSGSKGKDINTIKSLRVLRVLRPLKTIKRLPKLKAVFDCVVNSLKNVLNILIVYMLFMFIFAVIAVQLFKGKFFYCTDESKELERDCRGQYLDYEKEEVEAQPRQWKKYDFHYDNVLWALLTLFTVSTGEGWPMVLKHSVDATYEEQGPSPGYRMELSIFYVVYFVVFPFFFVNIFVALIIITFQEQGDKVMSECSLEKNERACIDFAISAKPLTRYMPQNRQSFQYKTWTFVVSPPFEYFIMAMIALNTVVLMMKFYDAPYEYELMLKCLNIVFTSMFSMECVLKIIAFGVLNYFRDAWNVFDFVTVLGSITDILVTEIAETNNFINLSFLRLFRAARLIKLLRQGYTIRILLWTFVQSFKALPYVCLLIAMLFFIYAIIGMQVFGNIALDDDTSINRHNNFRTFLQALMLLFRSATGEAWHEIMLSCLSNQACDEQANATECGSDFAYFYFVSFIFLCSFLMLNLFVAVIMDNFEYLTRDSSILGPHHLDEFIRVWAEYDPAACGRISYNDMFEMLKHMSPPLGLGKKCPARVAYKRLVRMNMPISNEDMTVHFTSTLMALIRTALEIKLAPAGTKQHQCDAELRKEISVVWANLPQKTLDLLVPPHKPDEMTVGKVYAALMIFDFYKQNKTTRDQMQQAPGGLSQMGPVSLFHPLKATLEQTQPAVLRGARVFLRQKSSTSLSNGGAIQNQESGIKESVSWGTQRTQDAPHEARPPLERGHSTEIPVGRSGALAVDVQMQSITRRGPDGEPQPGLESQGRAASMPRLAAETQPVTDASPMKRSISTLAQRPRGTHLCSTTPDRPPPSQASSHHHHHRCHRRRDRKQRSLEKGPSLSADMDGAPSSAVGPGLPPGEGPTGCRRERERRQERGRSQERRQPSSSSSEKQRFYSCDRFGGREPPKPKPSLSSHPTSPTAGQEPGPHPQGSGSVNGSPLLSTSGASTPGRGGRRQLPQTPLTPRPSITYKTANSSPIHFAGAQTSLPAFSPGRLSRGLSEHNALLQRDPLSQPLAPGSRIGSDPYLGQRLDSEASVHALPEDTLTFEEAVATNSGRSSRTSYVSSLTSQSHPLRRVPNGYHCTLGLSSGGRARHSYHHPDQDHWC
T1 sequence (Q02410 whole entry): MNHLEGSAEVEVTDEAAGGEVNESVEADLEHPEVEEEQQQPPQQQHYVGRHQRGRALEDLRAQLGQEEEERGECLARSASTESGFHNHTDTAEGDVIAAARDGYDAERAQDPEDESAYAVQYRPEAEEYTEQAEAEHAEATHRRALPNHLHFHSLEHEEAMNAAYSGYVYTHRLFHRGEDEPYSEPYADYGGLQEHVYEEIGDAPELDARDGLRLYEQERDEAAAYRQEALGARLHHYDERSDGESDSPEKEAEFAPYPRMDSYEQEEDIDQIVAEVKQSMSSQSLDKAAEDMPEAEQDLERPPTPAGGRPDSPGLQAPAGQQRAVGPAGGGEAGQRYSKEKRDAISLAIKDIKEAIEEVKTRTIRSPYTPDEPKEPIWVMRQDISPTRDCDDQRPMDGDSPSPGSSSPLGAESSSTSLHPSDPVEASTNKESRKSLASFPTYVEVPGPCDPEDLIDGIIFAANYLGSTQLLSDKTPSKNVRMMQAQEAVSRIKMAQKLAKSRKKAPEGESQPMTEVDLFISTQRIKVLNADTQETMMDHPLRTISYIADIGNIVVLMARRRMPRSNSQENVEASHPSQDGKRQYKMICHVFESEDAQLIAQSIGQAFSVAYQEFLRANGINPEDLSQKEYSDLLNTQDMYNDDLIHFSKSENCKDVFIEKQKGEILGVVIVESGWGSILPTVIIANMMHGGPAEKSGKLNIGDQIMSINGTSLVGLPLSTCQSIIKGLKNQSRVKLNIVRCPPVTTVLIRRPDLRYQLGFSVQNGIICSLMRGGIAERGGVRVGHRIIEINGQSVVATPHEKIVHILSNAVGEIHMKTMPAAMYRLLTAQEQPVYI
Chain of DNA (cytosine-5)-methyltransferase 1 (P26358 whole entry): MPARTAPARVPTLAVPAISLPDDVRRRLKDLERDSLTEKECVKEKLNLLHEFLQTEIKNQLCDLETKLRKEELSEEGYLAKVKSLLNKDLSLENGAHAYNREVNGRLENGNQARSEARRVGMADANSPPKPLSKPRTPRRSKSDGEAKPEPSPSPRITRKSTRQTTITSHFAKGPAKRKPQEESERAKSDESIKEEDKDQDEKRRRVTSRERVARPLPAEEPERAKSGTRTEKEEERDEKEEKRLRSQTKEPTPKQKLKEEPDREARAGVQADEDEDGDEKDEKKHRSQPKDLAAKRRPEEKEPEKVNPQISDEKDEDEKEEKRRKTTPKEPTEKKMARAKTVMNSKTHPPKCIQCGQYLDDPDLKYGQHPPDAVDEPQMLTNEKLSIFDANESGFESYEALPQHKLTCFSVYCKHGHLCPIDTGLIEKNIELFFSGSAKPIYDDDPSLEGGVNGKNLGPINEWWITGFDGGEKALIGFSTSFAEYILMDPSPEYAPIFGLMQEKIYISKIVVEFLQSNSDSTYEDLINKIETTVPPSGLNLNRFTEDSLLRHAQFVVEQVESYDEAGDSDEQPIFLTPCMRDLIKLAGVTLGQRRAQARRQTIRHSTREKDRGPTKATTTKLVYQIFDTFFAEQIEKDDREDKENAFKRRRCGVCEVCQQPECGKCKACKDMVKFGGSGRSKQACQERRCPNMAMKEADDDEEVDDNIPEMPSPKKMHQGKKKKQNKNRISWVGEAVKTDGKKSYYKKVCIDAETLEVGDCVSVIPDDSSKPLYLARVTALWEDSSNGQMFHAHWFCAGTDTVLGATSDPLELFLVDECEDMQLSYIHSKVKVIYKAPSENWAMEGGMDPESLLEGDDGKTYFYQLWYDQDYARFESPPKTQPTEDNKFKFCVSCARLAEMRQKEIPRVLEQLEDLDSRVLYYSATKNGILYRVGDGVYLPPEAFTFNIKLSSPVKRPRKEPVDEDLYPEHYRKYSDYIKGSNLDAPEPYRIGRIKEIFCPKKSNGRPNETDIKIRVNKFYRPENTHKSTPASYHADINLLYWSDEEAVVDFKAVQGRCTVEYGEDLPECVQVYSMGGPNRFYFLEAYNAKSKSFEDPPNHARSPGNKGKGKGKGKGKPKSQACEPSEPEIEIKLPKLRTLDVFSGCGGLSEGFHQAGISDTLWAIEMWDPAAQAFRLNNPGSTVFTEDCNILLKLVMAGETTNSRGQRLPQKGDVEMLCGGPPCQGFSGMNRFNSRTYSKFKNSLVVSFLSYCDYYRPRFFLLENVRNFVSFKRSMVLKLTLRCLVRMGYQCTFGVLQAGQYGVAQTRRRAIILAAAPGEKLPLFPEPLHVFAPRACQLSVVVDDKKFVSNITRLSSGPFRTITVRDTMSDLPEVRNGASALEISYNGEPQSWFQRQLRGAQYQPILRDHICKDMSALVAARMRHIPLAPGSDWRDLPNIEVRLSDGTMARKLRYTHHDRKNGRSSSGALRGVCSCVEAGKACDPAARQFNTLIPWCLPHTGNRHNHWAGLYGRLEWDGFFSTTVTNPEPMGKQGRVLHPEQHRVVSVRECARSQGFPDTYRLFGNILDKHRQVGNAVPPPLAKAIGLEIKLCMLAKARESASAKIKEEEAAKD
Chain of Eukaryotic translation initiation factor 4E (P63073 whole entry): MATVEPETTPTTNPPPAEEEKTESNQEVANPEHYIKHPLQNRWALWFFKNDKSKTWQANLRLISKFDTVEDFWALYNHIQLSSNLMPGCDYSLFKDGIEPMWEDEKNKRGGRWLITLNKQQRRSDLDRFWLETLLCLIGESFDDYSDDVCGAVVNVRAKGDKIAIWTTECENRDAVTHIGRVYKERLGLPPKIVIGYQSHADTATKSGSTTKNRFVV

## O=C(O)c1ccc(-n2cccc2/C=C2/NC(=O)N(c3cccc(Cl)c3)C2=O)cc1
[1]
  IC50: 4.62 µM (active)
[2]
  AC50: 86.8 µM (active)
[3]
  IC50: 3.28 µM (active)
[4]
  IC50: 48.1 µM (active)
[5]
  IC50: 50 µM (inactive)
[6]
  IC50: 66.8 µM (active)
[7]
  IC50: 6.07 µM (active)
[8]
  IC50: 6.34 µM (active)

## O=C(c1ccc(S(=O)(=O)Nc2ccc(F)cc2)cc1)N1CCN(c2ccccn2)CC1
[9]
  IC50: 14.7 µM (inactive)
[10]
  IC50: > 66.2 µM (inactive)
[11]
  IC50: 7.1 µM (active)
[12]
  IC50: 15.6 µM (inactive)
[13]
  IC50: 4.45 µM (active)
[14]
  IC50: > 50 µM (inactive)

## O=C(Nc1cccc(S(=O)(=O)NCc2ccco2)c1)c1cc(-c2ccccc2)nc2ccccc12
[9]
  IC50: > 49.7 µM (inactive)
[10]
  IC50: > 66.2 µM (inactive)
[11]
  IC50: > 5.53 µM (active)
[12]
  IC50: 16.9 µM (inactive)
[13]
  IC50: 2.98 µM (active)
[14]
  IC50: > 50 µM (inactive)

## COC(=O)c1coc(-c2ccc(F)cc2)n1
[15]
  EC50: > 100 µM (inactive)
